# Test results reported in patent US6355634B1, “Aromatic compounds” (Bayer Aktiengesellschaft, priority 1990, dated 2002).
# Experiments:
# [1] = tested on: Cercospora arachidicola; assay: Action against Cercospora arachidicola on peanut plants (curative action); assay type: in vivo; conditions: Mycosphaerella arachidis, 288 h, 160 ppm spray, peanut cv. Tamnut, evaluated 12 days after treatment, read-out: action (leaf area infected with Cercospora arachidicola as a percentage compared with the infected control)
# Procedure: Action Against Cercospora arachidicola on Peanut Plants (Curative Action)
# Two peanut plants cv. “Tamnut” in the 4-leaf stage are sprayed with a conidia suspension of Cercospora arachidicola (approx. 200,000 conidia/ml) and subsequently incubated at 25-26° C. and under dew-point conditions. After two days, the plants are sprayed thoroughly from all sides with a spray mixture prepared with a wettable powder of the active substance (with 160 ppm of active ingredient). The treated plants are subsequently incubated in a controlled-environment cabinet under the following conditions: 25-27° C. and 80% atmospheric humidity during the day, 20° C. and dew-point conditions during the night; the photoperiod in each case is 16 hours. 12 days after the treatment, the test is evaluated by determining the leaf area infected with Cercospora arachidicola as a percentage compared with the infected control.
# [2] = tested on: Venturia inaequalis; assay: Venturia inaequalis (curative action) on apple seedlings; assay type: in vivo; conditions: 50 ppm spray, apple cv. Golden Delicious, evaluated 9-10 days after treatment, read-out: action (leaf area covered in Venturia inaequalis as a percentage compared with the infected control)
# Procedure: Venturia inaequalis (Curative Action)
# Two apple seedlings cv. “Golden Delicious” are sprayed with a conidia suspension of Venturia inaequalis and subsequently incubated at 18° C. and under dew-point conditions. After 24 hours, the plants are sprayed thoroughly from all sides with a spray mixture prepared with a wettable powder of the active substance (with 50 ppm of active ingredient). The treated apple seedlings are subsequently cultured further in the greenhouse. 9-10 days after the treatment, the test is evaluated by determining the leaf area covered in Venturia inaequalis as a percentage compared with the infected control.
# [3] = tested on: Alternaria brassicae; assay: Alternaria brassicae (protective action) on cabbage seedlings; assay type: in vivo; conditions: 50 ppm spray, cabbage cv. Vorbote, evaluated 2-5 days after infection, read-out: action (leaf area infected with Alternaria brassicae as a percentage compared with the infected, untreated control)
# Procedure: Alternaria brassicae (Protective Action)
# 4 cabbage seedlings, cv. “Vorbote”, in the 6-leaf stage, distributed to 2 pots, are sprayed thoroughly with a spray mixture prepared with a wettable powder of the active substance (with 50 ppm of active ingredient) and subsequently cultured further in a controlled-environment cabinet at 19° C. and with 16 hours illumination per day. Two days after the treatment, the plants are infected by spraying with an aqueous conidia suspension (approx. 30,000 conidia/ml). The cabbage plants are then incubated at 24-26° C., under dew-point conditions and with a photoperiod of 16 hours. The test is evaluated 2-5 days after the infection by determining the leaf area infected with Alternaria brassicae as a percentage compared with the infected, untreated control.
# [4] = tested on: Erysiphe graminis; assay: Erysiphe graminis (protective action) on wheat seedlings; assay type: in vivo; conditions: Blumeria graminis, 168 h, 160 ppm spray, wheat cv. Lita, evaluated 7 days after infection, read-out: action (leaf area covered in Erysiphe graminis as a percentage compared with the infected control)
# Procedure: Erysiphe graminis (Protective Action)
# 30-40 wheat seedlings cv. “Lita” in the 1-leaf stage (distributed to two pots of ø7 cm) are sprayed thoroughly with a spray mixture prepared with a wettable powder of the active substance (with 160 ppm of active ingredient) and then cultured further in the greenhouse. One day after the treatment, the plants are dusted with conidia of Erysiphe graminis. The test is evaluated 7 days after the infection by determining the size of the leaf area covered in Erysiphe graminis as a percentage compared with the infected control.
# Untreated, but infected control plants show a level of infection with Erysiphe of 100%.
# [5] = tested on: Plasmopara viticola; assay: Plasmopara viticola (protective action) on grapevine seedlings; assay type: in vivo; conditions: 144 h, 160 ppm spray, grapevine cv. Riesling x Sylvaner, day 6 after infection, read-out: action (leaf area infected with Plasmopara viticola as a percentage compared with the infected, untreated control)
# Procedure: Plasmopara viticola (Protective Action)
# 2 grapevine seedlings cv. Riesling×Sylvaner, each in the 4-5 leaf stage, are sprayed thoroughly from all sides with a spray mixture prepared with a wettable powder of the active substance (with 160 ppm of active ingredient) and subsequently cultured further in a controlled-environment cabinet at 17° C., 70-80% relative atmospheric humidity and with a photoperiod of 16 hours. After 6 days, the test plants are infected by spraying the undersides of the leaves with zoosporangia of Plasmopara viticola, suspended in distilled water (approx. 300,000 sporangia/ml). The grapevine plants are then incubated as follows: 1 day at 22° C. and under dew-point conditions in the dark and subsequently 4 days in the greenhouse. To induce fructification of Plasmopara viticola, the grapevines are transferred to a controlled-environment cabinet with dew-point conditions at 22° C. on day 5 after the infection.
# The tests are carried out in each case on day 6 after the infection by determining the leaf area infected with Plasmopara viticola as a percentage compared with the infected, untreated control.
# [6] = tested on: Puccinia coronata; assay: Puccinia coronata (curative action) on oat seedlings; assay type: in vivo; conditions: 160 ppm spray, oat cv. Selma, evaluated 9-10 days after infection, read-out: action (leaf area infected with Puccinia coronata as a percentage compared with the infected, untreated control)
# Procedure: Puccinia coronata (Curative Action)
# 30-40 oat seedlings cv. “Selma” (distributed to 2 pots of ø7 cm) are infected with Puccinia coronata by spraying with an aqueous spore suspension (approx. 150,000 uredospores/ml). The test plants are subsequently incubated for 24 hours at 20-24° C. and under dew-point conditions. The oat seedlings are then sprayed thoroughly from all sides with a spray mixture prepared with a wettable powder of the active substance (with 160 ppm of active ingredient). They are cultured further in a controlled-environment cabinet at 19° C. and with a photoperiod of 14 hours. The test is evaluated 9-10 days after infection by determining the leaf area infected with Puccinia coronata as a percentage compared with the infected, untreated control.
SMILES,melting point [°C],pest or weed control at 160 ppm [1] [%],pest or weed control at 50 ppm [2] [%],pest or weed control at 50 ppm [3] [%],pest or weed control at 160 ppm [4] [%],pest or weed control at 160 ppm [5] [%],pest or weed control at 160 ppm [6] [%]
CO/N=C(\C(=O)OC)c1ccccc1CON=C(C)c1ccc(F)cc1 [Compound 34],89 to 90,> 75,> 75,> 75,> 75,,
CO/N=C(\C(=O)OC)c1ccccc1CON=C(C)c1cc2ccccc2o1 [Compound 32],110 to 112,> 75,> 75,> 75,,> 75,
CO/N=C(\C(=O)OC)c1ccccc1CON=C(C)c1ccco1,95 to 97,,,,,,
CO/N=C(\C(=O)OC)c1ccccc1CON=C(C)c1ccccn1 [Compound 15],82 to 84,,> 75,,> 75,,
CO/N=C(\C(=O)OC)c1ccccc1CON=C(C)c1ccc(Cl)cc1 [Compound 17],,> 75,> 75,> 75,,> 75,> 75
CO/N=C(\C(=O)OC)c1ccccc1CON=C(C)c1cc(C(F)(F)F)cc(C(F)(F)F)c1 [Compound 33],76 to 78,> 75,> 75,> 75,> 75,,
